According to the supplement of paper PMC10307832:

How the values were obtained:
Assay in all cases: relative viability (nuclei count vs DMSO), 5 days (fraction); higher = more cells survive
[1] = compound: COc1cc2ncn(-c3cc(OCc4ccccc4C(F)(F)F)c(C(N)=O)s3)c2cc1OC + C[C@]1(O)C[C@@H](c2nc(-c3ccc4ccc(-c5ccccc5)nc4c3)c3c(N)nccn32)C1 [Linsitinib] (partner 1 µM)
Procedure, shortened: (§1)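 A single step with final 0.05% Triton X-100, 1% formaldehyde and 1 ug/ml Hoechst fixed the cells and stained nuclei 5 days after treatment. Lung cancer cell lines in 1536-well plates had been treated by pin tool the day after seeding with one drug alone or a fixed anchor-drug dose plus five library-drug doses (not always all listed) in √10 steps, and nuclei were counted on 4× images. Relative viability is the ratio of nuclei in treated wells to nuclei in vehicle wells, taken as the median of duplicate plates.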

[2] = compound: COc1cc2ncn(-c3cc(OCc4ccccc4C(F)(F)F)c(C(N)=O)s3)c2cc1OC + Nc1nc2[nH]cc(CCc3ccc(C(=O)N[C@@H](CCC(=O)O)C(=O)O)cc3)c2c(=O)[nH]1 [Pemetrexed] (partner 0.2 µM)
Procedure, shortened: as §1

[3] = compound: COc1cc2ncn(-c3cc(OCc4ccccc4C(F)(F)F)c(C(N)=O)s3)c2cc1OC + O=C(CCCCCCC(=O)Nc1ccccc1)NO [Vorinostat] (partner 1 µM)
Procedure, shortened: as §1

[4] = compound: COc1cc2ncn(-c3cc(OCc4ccccc4C(F)(F)F)c(C(N)=O)s3)c2cc1OC + O=C(c1cc(Cc2n[nH]c(=O)c3ccccc23)ccc1F)N1CCN(C(=O)C2CC2)CC1 [Olaparib] (partner 8 µM)
Procedure, shortened: as §1

Cell Line	relative viability ([1]; first compound 0.05 µM)	relative viability ([1]; first compound 0.1581 µM)	relative viability ([1]; first compound 0.5 µM)	relative viability ([1]; first compound 1.581 µM)	relative viability ([1]; first compound 5 µM)	relative viability ([2]; first compound 0.05 µM)	relative viability ([2]; first compound 0.1581 µM)	relative viability ([2]; first compound 0.5 µM)	relative viability ([2]; first compound 1.581 µM)	relative viability ([2]; first compound 5 µM)	relative viability ([3]; first compound 0.05 µM)	relative viability ([3]; first compound 0.1581 µM)	relative viability ([3]; first compound 0.5 µM)	relative viability ([3]; first compound 1.581 µM)	relative viability ([3]; first compound 5 µM)	relative viability ([4]; first compound 0.05 µM)	relative viability ([4]; first compound 0.1581 µM)	relative viability ([4]; first compound 0.5 µM)	relative viability ([4]; first compound 1.581 µM)	relative viability ([4]; first compound 5 µM)
LC-2-ad	0.722	0.685	0.119	0.106	0.0972	0.244	0.281	0.248	0.213	0.171	0.559	0.543	0.129	0.161	0.129	0.431	0.593	0.466	0.173	0.176
LCLC-97TM1	0.203	0.182	0.122	0.141	0.115	0.215	0.217	0.147	0.11	0.0881	0.803	0.822	0.0658	0.0665	0.0652	0.201	0.222	0.189	0.0731	0.0698
LCLC-103H	1.21	1.09	0.841	0.53	0.344	0.449	0.48	0.442	0.27	0.195	0.808	0.799	0.327	0.261	0.199	0.687	0.768	0.651	0.281	0.212
LK-2	0.591	0.413	0.284	0.182	0.165	0.386	0.268	0.168	0.115	0.0951	0.241	0.159	0.125	0.124	0.12	0.681	0.345	0.215	0.16	0.0981
LOU-NH91	0.94	1.05	0.824	0.526	0.595	0.344	0.357	0.362	0.291	0.264	0.903	1.04	0.683	0.365	0.29	0.893	0.89	0.688	0.382	0.273
LU99A	0.502	0.522	0.224	0.212	0.161	0.204	0.169	0.204	0.154	0.146	0.445	0.401	0.196	0.123	0.115	0.241	0.273	0.225	0.152	0.108
LXF-289	0.884	0.762	0.158	0.0992	0.0585	0.897	0.674	0.597	0.184	0.0849	0.78	0.622	0.421	0.11	0.0692	0.704	0.817	0.269	0.0639	0.0504
NCI-H23	0.655	0.371	0.274	0.113	0.131	0.648	0.583	0.208	0.184	0.112	0.519	0.284	0.0883	0.121	0.0755	0.187	0.239	0.166	0.128	0.0947
NCI-H322M	0.893	0.856	0.748	0.401	0.408	0.682	0.707	0.524	0.429	0.352	0.933	0.914	0.78	0.522	0.428	0.717	0.778	0.594	0.475	0.423
NCI-H358	0.693	0.678	0.349	0.155	0.141	0.196	0.167	0.192	0.102	0.0855	0.589	0.541	0.0993	0.0786	0.0711	0.552	0.516	0.195	0.0846	0.078
NCI-H441	0.395	0.315	0.205	0.152	0.149	0.248	0.27	0.189	0.148	0.158	0.446	0.827	0.195	0.174	0.19	0.349	0.34	0.242	0.175	0.146
NCI-H460	0.836	0.832	0.0599	0.0112	0.0063	0.0574	0.0651	0.0638	0.0225	0.0159	0.745	0.723	0.0471	0.0166	0.0169	0.468	0.357	0.0734	0.0365	0.0215
NCI-H520	0.964	0.957	0.477	0.166	0.154	0.301	0.663	0.247	0.204	0.171	0.343	0.621	0.215	0.179	0.183	0.198	0.247	0.193	0.182	0.142
NCI-H596	1.08	1.1	0.87	0.655	0.351	0.559	0.463	0.454	0.359	0.337	0.598	0.405	0.515	0.246	0.162	0.542	0.692	0.765	0.413	0.306
NCI-H647	1.07	1.09	0.267	0.101	0.126	0.179	0.176	0.0943	0.06	0.0757	0.326	0.489	0.113	0.0523	0.0497	0.474	0.331	0.103	0.0536	0.0596
NCI-H650	0.896	1.17	0.505	0.118	0.171	1.01	0.923	0.768	0.261	0.458	0.425	0.438	0.279	0.137	0.143	0.367	0.41	0.26	0.15	0.272

Cell Line	relative viability ([1]; first compound 0.05 µM)	relative viability ([1]; first compound 0.1581 µM)	relative viability ([1]; first compound 0.5 µM)	relative viability ([1]; first compound 1.581 µM)	relative viability ([1]; first compound 5 µM)	relative viability ([2]; first compound 0.05 µM)	relative viability ([2]; first compound 0.1581 µM)	relative viability ([2]; first compound 0.5 µM)	relative viability ([2]; first compound 1.581 µM)	relative viability ([2]; first compound 5 µM)	relative viability ([3]; first compound 0.05 µM)	relative viability ([3]; first compound 0.1581 µM)	relative viability ([3]; first compound 0.5 µM)	relative viability ([3]; first compound 1.581 µM)	relative viability ([3]; first compound 5 µM)	relative viability ([4]; first compound 0.05 µM)	relative viability ([4]; first compound 0.1581 µM)	relative viability ([4]; first compound 0.5 µM)	relative viability ([4]; first compound 1.581 µM)	relative viability ([4]; first compound 5 µM)
NCI-H661	0.513	0.526	0.39	0.247	0.174	0.989	0.819	0.482	0.303	0.269	0.843	0.753	0.293	0.269	0.223	0.68	0.681	0.349	0.332	0.274
NCI-H838	1.15	1.04	0.873	0.178	0.105	0.216	0.278	0.221	0.143	0.114	0.577	0.801	0.477	0.13	0.132	0.491	0.679	0.365	0.0997	0.121
NCI-H1355	0.857	0.863	0.617	0.203	0.156	1.12	0.924	0.88	0.223	0.141	0.592	0.624	0.457	0.154	0.13	0.486	0.671	0.3	0.15	0.128
NCI-H1395	0.967	1	0.593	0.395	0.388	0.761	0.828	0.663	0.395	0.27	0.711	0.688	0.466	0.354	0.25	0.441	0.476	0.414	0.326	0.314
NCI-H1437	1.09	1.01	0.11	0.1	0.09	0.317	0.32	0.221	0.232	0.179	0.717	0.779	0.367	0.334	0.326	0.658	0.511	0.272	0.232	0.194
NCI-H1651	1	1.14	0.528	0.117	0.0945	0.636	0.578	0.468	0.402	0.326	0.504	0.51	0.309	0.164	0.324	0.18	0.157	0.15	0.14	0.153
NCI-H1666	0.821	0.953	0.37	0.219	0.248	0.827	0.83	0.651	0.52	0.447	0.954	0.998	0.584	0.561	0.527	0.79	0.786	0.622	0.56	0.466
NCI-H1734	0.946	0.956	0.644	0.309	0.215	0.401	0.386	0.41	0.25	0.164	0.776	0.902	0.365	0.202	0.137	0.235	0.646	0.247	0.212	0.144
NCI-H1755	0.995	1.02	0.799	0.416	0.349	0.43	0.434	0.426	0.299	0.286	0.781	0.738	0.631	0.447	0.354	0.816	0.827	0.714	0.447	0.319
NCI-H1793	0.928	0.847	0.763	0.248	0.145	0.788	1.01	0.276	0.164	0.107	0.553	0.42	0.328	0.17	0.113	0.216	0.837	0.436	0.177	0.117
NCI-H1915	1.09	1.05	0.795	0.169	0.106	0.478	0.489	0.37	0.137	0.0826	0.497	0.582	0.352	0.0829	0.0666	0.232	0.211	0.176	0.108	0.0766
NCI-H1944	1.2	1.15	0.923	0.257	0.171	0.666	0.635	0.536	0.178	0.0832	0.609	0.602	0.456	0.166	0.127	0.415	0.445	0.304	0.152	0.122
NCI-H1975	1.01	0.877	0.531	0.207	0.196	0.3	0.274	0.232	0.188	0.159	0.501	0.631	0.272	0.166	0.134	0.464	0.651	0.319	0.168	0.146
NCI-H1993	0.835	0.782	0.572	0.56	0.528	0.513	0.616	0.41	0.421	0.448	0.725	0.736	0.384	0.389	0.348	0.952	1.14	0.742	0.535	0.462
NCI-H2009	1.19	1.11	0.918	0.208	0.22	0.983	0.884	0.43	0.218	0.26	0.667	0.607	0.302	0.0531	0.0578	0.604	0.623	0.171	0.107	0.0932
NCI-H2023	0.593	0.769	0.49	0.123	0.0804	0.202	0.2	0.177	0.107	0.114	0.544	0.711	0.168	0.107	0.0613	0.416	0.392	0.16	0.0751	0.0692
